Consider five molecules from patent publication US20150272922A1, “Compounds for Reducing Glucocorticoids, and Methods of Treatment Thereof” (BIONICHE LIFE SCIENCES INC., priority 2012, published 2015).

This assay has as its system trout head kidney tissue. Briefly: Cortisol lowering activity in trout head kidney slice model (ACTH-stimulated cortisol release). Type of assay: cell-based, rainbow trout (Oncorhynchus mykiss). Particulars: for effect on cortisol production: 60 μg/ml, ACTH 1 U/ml; for EC50: Oncorhynchus mykiss; for concentration dependence of effect on cortisol production: ACTH 1 U/mL. How it is done:
Head kidney tissue was isolated using a modified method as described by Conde-Sieira et al. (2013). Fish were anaesthetized with benzocaine (30-35 mg/L), blood was removed from the caudal vein using a 3 mL heparinized syringe and the fish euthanized by spinal transection. The vasculature was perfused through the post-cardinal vein with 40 mL of modified Hanks' medium (92.56 mM NaCl, 3.63 mM KCl, 0.55 mM MgSO4, 0.4 mM KH2PO4, 0.23 Na2HPO4, 7.5 mM Hepes, 2.81 mM NaHCO3, 0.85 mM CaCl2, 0.03% (w/v) bovine albumin serum) containing EGTA (1 mM final) adjusted to pH 7.64. The entire head kidney was removed from the trout and transferred to a 15 mL chilled glass petri dish containing modified Hanks' medium (pH 7.15). The tissue was weighed then transferred to a 35 mL chilled glass petri dish containing […] modified Hanks' medium per gram of tissue supplemented with MEM amino acid solution (50×; 2 mL/100 mL medium; Sigma—M5550), MEM non-essential amino acid solution (100×; 1 mL/100 mL medium; Sigma˜M7145) and Antibiotic-Antimycotic (100×; 1 mL/100 mL medium; Life Technologies˜15240). The tissue was chopped finely with a razor blade then separated further using a rubber policeman. The tissue was incubated at 13° C. with gentle agitation for 1.5 h to ensure basal levels of cortisol release. Optimal incubation times were determined in previous experiments (Conde-Sieira et al., 2013).
Following the 1.5 h pre-incubation, tissue was placed in 48-well culture plates (approximately 25 mg tissue pre well) along with a final volume of 250 μL modified Hanks' medium. There were two wells for each compound treatment; one control (−ACTH) and one stimulated (+ACTH) that were conducted simultaneously. Tissues were incubated with compounds of the disclosure (60 μg/mL) initiated at the same time as determined in previous experiments (Mullally et al., 2012) for 60 min at 13° C. with gentle agitation and stimulated with 1 U/mL ACTH (Sigma-Aldrich). The compounds were dissolved in ethanol and DMSO (final concentration of DMSO: 0.3% v/v, ethanol 1% v/v) by vortexing for 1 min and sonication for 30 s if the compound was not fully dissolved (determined by visual inspection). After incubation, tissue and supernatant were collected and transferred to pre-weighed 1.5 mL conical plastic tubes and centrifuged (14 000 RCF, 10 min). The supernatant was collected and transferred into a new 1.5 mL conical plastic tube and flash frozen in liquid nitrogen for subsequent cortisol assay. The mass of tissue for each sample was determined by weighing the remaining tissue in the pre-weighed tubes. Four control wells were prepared for each preparation: modified Hanks' medium, modified Hanks' medium plus ACTH (1 U/mL), DMSO/ethanol blank (0.3% v/v DMSO, 1% v/v ethanol) and DMSO/ethanol blank plus ACTH (1 U/mL).
Cortisol concentrations were assessed using a ^125I RIA kit (MP Biomedicals, Irvine, Calif., USA) as per the manufacturer's instructions and read using a Packard® Cobra™ Auto-Gamma Counter. Counts were normalized to tissue weights in each experimental well.
Data are presented as % change in ACTH-stimulated cortisol release relative to control preparation (modified Hanks' medium stimulated with ACTH) using GraphPad Prism software (GraphPad Software, Inc., La Jolla, Calif.). […] GraphPad Prism software (GraphPad Software, Inc., La Jolla, Calif.) was used to graph and calculate EC50 values by fitting a sigmoidal curve to the dose response data as well as linear regressions between Log P of compounds of the disclosure vs log cortisol responses.

The mark [1] stands for this setting: read-out: calculated EC50, approximate (inhibition of cortisol production).
Where [2] appears, read: GraphPad Prism fit, n=3-7, FIG. 3, read-out: EC50, four parameter sigmoidal curve (ACTH-stimulated cortisol release).

Values after ≈ are worked out from the molar mass of the structure shown. Like-named read-outs stand apart in the source and are kept apart here.

The term EC50 denotes the concentration that produces a half-maximal response. On to `COC(=O)[C@]12CC[C@@H](C(C)O)C1C1CCC3[C@@]4(C)CC[C@H](O)C(C)(C)C4CC[C@@]3(C)[C@]1(C)CC2` (single isomer, unassigned) [Compound 1546], for which the “effect on cortisol production” value was “lowered cortisol production”. Also, under setting [1], the concentration giving a half-maximal response (EC50) was approximately 9 µg/mL (≈ 19 µM). Besides, under setting [2], the EC50 was 9.5 µg/mL (≈ 20 µM).

Regarding `CC(=O)[C@@H]1CC[C@]2(C(=O)O)CC[C@]3(C)[C@H](CC[C@@H]4[C@@]5(C)CC[C@H](O)C(C)(C)[C@@H]5CC[C@]43C)[C@@H]12` [Compound 1516, Platanic Acid], the “effect on cortisol production” value is reported as “lowered cortisol production”. In addition, the EC50 under setting [1] is approximately 9 µg/mL (≈ 19.6 µM). The EC50 under setting [2] came to 9.4 µg/mL (≈ 20.5 µM). Where the note is “dose response”, the “concentration dependence of effect on cortisol production” value is reported as “inhibited cortisol production in a dose-dependent manner”.

As to `C=C(C)[C@@H]1CC[C@]2(C(=O)OC)CC[C@]3(C)C(CCC4[C@@]5(C)C[C@@H](O)C(=O)C(C)(C)C5CC[C@]43C)C12` (stereo partly drawn) [Compound 1521, Methyl 2α-hydroxy betulonate], the “effect on cortisol production” value is reported as “lowered cortisol production”.

As for `C=C(C)[C@@H]1CC[C@]2(/C=C/C(=O)OCC)CC[C@]3(C)C(CCC4[C@@]5(C)CC[C@H](O)C(C)(C)C5CC[C@]43C)C12` (some centres unmarked) [Compound 1529, Vinylogous ethyl betulinate], the “effect on cortisol production” value is “lowered cortisol production”. The EC50 under setting [2] amounted to 116 µg/mL (≈ 227 µM).

With `COC(=O)[C@]12CC[C@@H](C)[C@H](C)[C@H]1C1=CCC3[C@@]4(C)C[C@@H](O)C(=O)C(C)(C)C4CC[C@@]3(C)[C@]1(C)CC2` (stereo partly drawn) [Compound 1537, Methyl 2α-hydroxy-3-oxo-urs-12-en-28-oate], the “effect on cortisol production” value is “lowered cortisol production”. Further, where the note is “ACTH-stimulated cortisol release, dose response, FIG. 3, read-out: calculated EC50, approximate (inhibition of cortisol production)”, the EC50 was approximately 28 µg/mL (≈ 57.8 µM). For the same molecule, under setting [2], the 50% effective concentration (EC50) was 28.2 µg/mL (≈ 58.2 µM). Further, the “concentration dependence of effect on cortisol production” value (dose response) is on record as “inhibited cortisol production in a dose-dependent manner”.
